Values joined by “and” are separate entries in the source; they are usually repeats but may differ in a detail not shown here. Equal values may be shown once.
Assays:
Multiple dose PK/TK, rat = assay type: in vivo
Excerpt: (§1) This section provides a summary of the pharmacokinetic and metabolism properties of AZD0328 derived from in vivo studies. […] The derived PK/TK parameters from these studies are presented in Table 4 for single dose studies (DMR4, 0619LR, 20030191PCR, DMO16, DMB10, DMW12, 50190, 0190DD and 03.330/1), and are presented in Table 5 multiple dose PK/TK studies (DMR4, 0612AR, DMB15, 50190, 0190DD and 0295AD).

α7 receptor [1] = molecular target: T1, α7 receptor (Rattus norvegicus, UniProt Q05941); experiment: Pre-frontal cortex slice GABA sIPSC frequency; assay type: cell-based; conditions: rat PFC slice
T1 sequence (Q05941 23-502): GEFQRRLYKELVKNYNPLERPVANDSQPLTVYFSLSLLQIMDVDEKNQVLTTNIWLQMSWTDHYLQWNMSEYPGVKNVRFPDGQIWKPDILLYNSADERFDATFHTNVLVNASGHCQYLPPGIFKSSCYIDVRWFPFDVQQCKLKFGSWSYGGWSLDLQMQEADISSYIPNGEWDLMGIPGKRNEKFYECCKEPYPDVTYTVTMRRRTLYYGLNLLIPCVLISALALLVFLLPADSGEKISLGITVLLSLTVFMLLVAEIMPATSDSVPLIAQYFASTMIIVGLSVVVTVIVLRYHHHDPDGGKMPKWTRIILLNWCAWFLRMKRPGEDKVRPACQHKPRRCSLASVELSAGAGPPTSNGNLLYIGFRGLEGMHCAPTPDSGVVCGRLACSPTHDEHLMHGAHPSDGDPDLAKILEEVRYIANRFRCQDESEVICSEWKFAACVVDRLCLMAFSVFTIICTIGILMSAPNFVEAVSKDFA
Excerpt: (§2) In membranes prepared either from cultured, human recombinant α7 receptor-expressing, human embryonic kidney cells α7-HEK) or from rat brain hippocampus, AZD0328 competed with binding of an iodinated form of the high-affinity, selective α7 receptor antagonist snake toxin, [^125I]-α-bungarotoxin (BTX) (Table 1). In Xenopus oocytes injected with human, recombinant α7 receptor mRNA, AZD0328 activates whole cell currents (Table 2). […] In acutely dissociated rat hippocampal interneurons, AZD0328 elicits rapidly activated, desensitizing whole-cell current (Table 1), consistent with the known properties of rat neuronal α7 receptors. […] AZD0328 modulates synaptic function, consistent with the well-known role of α7 receptors as heteroreceptor modulators of glutamatergic and GABAergic synaptic function.

Single dose PK/TK, dog = assay type: in vivo; conditions: for AUC / Cmax / Tmax: dog, in vivo, po
Excerpt: as §1

Mouse lymphoma = Mouse lymphoma test; assay type: cell-based
Excerpt: The genotoxic potential of AZD0328 has been evaluated in the Ames test and in the Mouse lymphoma test. AZD0328 was not mutagenic in either of these tests.

dogs = experiment: Maximum tolerated dose and 7 days oral toxicity in the dog; assay type: in vivo
Protocol: (§3) Single doses of 4.5 to 17 mg/kg were administrated to test AZD0328 to 2 male and 2 female dogs. […] Signs of nausea and at the higher doses vomiting was seen. In the 7 days repeated dose study 2 male and 2 female dogs were given 35 mg/kg per day. However, vomiting was the major clinical sign recorded during the study.

[2] = as above; assay type: in vivo; conditions: both sexes, dog, in vivo, oral; dogs, single doses of 4.5 to 17 mg/kg
Protocol: as §3

[3] = molecular target: α7 receptor binding sites (Rattus norvegicus, UniProt Q05941); assay type: in vivo; conditions: sc, 2-4 h
Chain of α7 receptor binding sites (Q05941 23-502): as above

α7 receptor [4] = molecular target: T1, α7 receptor; experiment: Hippocampal slice GABA sIPSC frequency; assay type: cell-based; conditions: 5 μM
Excerpt: as §2

[5] = both sexes, rat, in vivo, po, 2.16 mg/kg, rat 1F+1M, DMR4, 2.16 mg/kg (10 μmol/kg), day 1
[6] = both sexes, rat, in vivo, po, 2.16 mg/kg, rat 1F+1M, DMR4, 2.16 mg/kg (10 μmol/kg), day 7
[7] = female, rat, in vivo, po, 2.16 mg/kg, rat 4F, 0612AR, 2.16 mg/kg (10 μmol/kg), day 1
[8] = female, rat, in vivo, po, 2.16 mg/kg, rat 4F, 0612AR, 2.16 mg/kg (10 μmol/kg), day 30
[9] = female, rat, in vivo, po, 15.1 mg/kg, rat 4F, 0612AR, 15.1 mg/kg (70 μmol/kg), day 1
[10] = female, rat, in vivo, po, 15.1 mg/kg, rat 4F, 0612AR, 15.1 mg/kg (70 μmol/kg), day 30
[11] = female, rat, in vivo, po, 64.9 mg/kg, rat 4F, 0612AR, 64.9 mg/kg (300 μmol/kg), day 1
[12] = female, rat, in vivo, po, 64.9 mg/kg, rat 4F, 0612AR, 64.9 mg/kg (300 μmol/kg), day 30
[13] = male, rat, in vivo, po, 2.16 mg/kg, rat 4M, 062AR, 2.16 mg/kg (10 μmol/kg), day 30
[14] = male, rat, in vivo, po, 2.16 mg/kg, rat 4M, 0612AR, 2.16 mg/kg (10 μmol/kg), day 1
[15] = male, rat, in vivo, po, 15.1 mg/kg, rat 4M, 0612AR, 15.1 mg/kg (70 μmol/kg), day 1
[16] = male, rat, in vivo, po, 15.1 mg/kg, rat 4M, 0612AR, 15.1 mg/kg (70 μmol/kg), day 30
[17] = male, rat, in vivo, po, 64.9 mg/kg, rat 4M, 0612AR, 64.9 mg/kg (300 μmol/kg), day 1
[18] = male, rat, in vivo, po, 64.9 mg/kg, rat 4M, 0612AR, 64.9 mg/kg (300 μmol/kg), day 30
[19] = both sexes, 1.08 mg/kg, dog 2F+2M, 0190DD, oral 1.08 mg/kg (5 μmol/kg) split in two 6 h apart, capsules, fasted
[20] = both sexes, 1.08 mg/kg, dog 2F+2M, 0190DD, oral 1.08 mg/kg (5 μmol/kg) split in two 6 h apart, capsules, fed
[21] = both sexes, 1.08 mg/kg, dog 2F+2M, 0190DD, oral 1.08 mg/kg (5 μmol/kg) split in two 6 h apart, solution, fasted

## c1cnc2c(c1)C[C@@]1(CN3CCC1CC3)O2 [AZD0328, (R)-Spiro[1-azabicyclo[2.2.2]octane-3,2′(3′H)-furo[2,3-b]pyridine]]
Multiple dose PK/TK, rat; [5]
  AUC: 699 ng·h/mL to 861 ng·h/mL and 3.23 µM·h to 3.98 µM·h
  Cmax: 251 ng/mL to 344 ng/mL and 1.16 µM to 1.59 µM
  Tmax: 0.5 to 1 h
Multiple dose PK/TK, rat; [6]
  AUC: 2.77 µM·h to 3.96 µM·h and 599 ng·h/mL to 857 ng·h/mL
  Cmax: 212 to 324 ng/mL
  Cmax at 7 day: 981 to 1500 nM
  Tmax: 0.5 h
Multiple dose PK/TK, rat; [7]
  AUC: 916 ng·h/mL and 7.25 µM·h
  Cmax at 1 day: 236 ng/mL and 1.87 µM
  Tmax at 1 day: 1 h
Multiple dose PK/TK, rat; [8]
  AUC: 858 ng·h/mL and 6.79 µM·h
  Cmax at 30 day: 220 ng/mL and 1.74 µM
  Tmax at 30 day: 1 h
Multiple dose PK/TK, rat; [9]
  AUC: 8120 ng·h/mL and 64.3 µM·h
  Cmax at 1 day: 984 ng/mL and 7.79 µM
  Tmax at 1 day: 1 h
Multiple dose PK/TK, rat; [10]
  AUC: 9600 ng·h/mL and 76 µM·h
  Cmax at 30 day: 1420 ng/mL and 11.2 µM
  Tmax at 30 day: 1 h
Multiple dose PK/TK, rat; [11]
  AUC: 40400 ng·h/mL and 320 µM·h
  Cmax: 2480 ng/mL and 19.6 µM
  Tmax: 1 to 3 h
Multiple dose PK/TK, rat; [12]
  AUC: 42100 ng·h/mL and 333 µM·h
  Cmax: 2930 ng/mL and 23.2 µM
  Tmax: 1 h
Multiple dose PK/TK, rat; [13]
  AUC: 412 ng·h/mL and 3.26 µM·h
  Cmax at 30 day: 154 ng/mL and 1.22 µM
  Tmax at 30 day: 1 h
Multiple dose PK/TK, rat; [14]
  AUC: 528 ng·h/mL and 4.18 µM·h
  Cmax at 1 day: 189 ng/mL and 1.5 µM
  Tmax at 1 day: 1 h
Multiple dose PK/TK, rat; [15]
  AUC: 4230 ng·h/mL and 33.5 µM·h
  Cmax at 1 day: 769 ng/mL and 6.09 µM
  Tmax at 1 day: 1 to 3 h
Multiple dose PK/TK, rat; [16]
  AUC: 5630 ng·h/mL and 44.6 µM·h
  Cmax at 30 day: 1160 ng/mL and 9.21 µM
  Tmax at 30 day: 1 h
Multiple dose PK/TK, rat; [17]
  AUC: 23900 ng·h/mL and 189 µM·h
  Cmax: 1670 ng/mL and 13.2 µM
  Tmax: 1 to 6 h
Multiple dose PK/TK, rat; [18]
  AUC: 29300 ng·h/mL and 232 µM·h
  Cmax: 2780 ng/mL and 22 µM
  Tmax: 1 h
Multiple dose PK/TK, rat; rat 1F+1M, DMR4, 2.16 mg/kg (10 μmol/kg), day 1
  AUC/dose: 0.323-0.398
Multiple dose PK/TK, rat; rat 1F+1M, DMR4, 2.16 mg/kg (10 μmol/kg), day 7
  AUC/dose: 0.277-0.396
Multiple dose PK/TK, rat; rat 4F, 0612AR, 2.16 mg/kg (10 μmol/kg), day 1
  AUC/dose: 0.725 ± 0.068
Multiple dose PK/TK, rat; rat 4F, 0612AR, 2.16 mg/kg (10 μmol/kg), day 30
  AUC/dose: 0.679 ± 0.134
Multiple dose PK/TK, rat; rat 4F, 0612AR, 15.1 mg/kg (70 μmol/kg), day 1
  AUC/dose: 0.919 ± 0.071
Multiple dose PK/TK, rat; rat 4F, 0612AR, 15.1 mg/kg (70 μmol/kg), day 30
  AUC/dose: 1.09 ± 0.13
Multiple dose PK/TK, rat; rat 4F, 0612AR, 64.9 mg/kg (300 μmol/kg), day 1
  AUC/dose: 1.07 ± 0.10
Multiple dose PK/TK, rat; rat 4F, 0612AR, 64.9 mg/kg (300 μmol/kg), day 30
  AUC/dose: 1.11 ± 0.14
Multiple dose PK/TK, rat; rat 4M, 062AR, 2.16 mg/kg (10 μmol/kg), day 30
  AUC/dose: 0.326 ± 0.084
Multiple dose PK/TK, rat; rat 4M, 0612AR, 2.16 mg/kg (10 μmol/kg), day 1
  AUC/dose: 0.418 ± 0.062
Multiple dose PK/TK, rat; rat 4M, 0612AR, 15.1 mg/kg (70 μmol/kg), day 1
  AUC/dose: 0.479 ± 0.037
Multiple dose PK/TK, rat; rat 4M, 0612AR, 15.1 mg/kg (70 μmol/kg), day 30
  AUC/dose: 0.637 ± 0.043
Multiple dose PK/TK, rat; rat 4M, 0612AR, 64.9 mg/kg (300 μmol/kg), day 1
  AUC/dose: 0.630 ± 0.083
Multiple dose PK/TK, rat; rat 4M, 0612AR, 64.9 mg/kg (300 μmol/kg), day 30
  AUC/dose: 0.773 ± 0.057
α7 receptor [1]
  EC50: 700 nM
α7 receptor [1]; read-out: Maximum response, GABA sIPSC frequency
  Emax: 330%
Single dose PK/TK, dog; [19]
  AUC: 68.1 ng·h/mL and 0.315 µM·h
  Cmax: 19.2 ng/mL and 89 nM
  Tmax: 1 to 3 h
Single dose PK/TK, dog; [20]
  AUC: 177 ng·h/mL and 0.818 µM·h
  Cmax: 26.9 ng/mL and 124 nM
  Tmax: 0.5 to 6 h
Single dose PK/TK, dog; [21]
  AUC: 104 ng·h/mL and 0.483 µM·h
  Cmax: 33.1 ng/mL and 153 nM
  Tmax: 0.5 h
Single dose PK/TK, dog; dog 4M, 0279ZD, single oral 17.3 mg/kg (80 μmol/kg)
  F: 0.146 ± 0.043%
Single dose PK/TK, dog; dog 4M, 0279ZD, single oral 34.6 mg/kg (160 μmol/kg)
  F: 0.239 ± 0.099%
Single dose PK/TK, dog; male, 17.3 mg/kg, dog 4M, 0279ZD, single oral 17.3 mg/kg (80 μmol/kg)
  AUC: 2530 ng·h/mL and 11.7 µM·h
Single dose PK/TK, dog; male, 34.6 mg/kg, dog 4M, 0279ZD, single oral 34.6 mg/kg (160 μmol/kg)
  AUC: 8280 ng·h/mL and 38.3 µM·h
Mouse lymphoma
  mutagenicity: not mutagenic
dogs
  dose with slight QT prolongation (ECG): ≥ 8.6 mg/kg
[2]
  Cmax: 2800 to 14000 nM
[3]
  Dose active: [125I]-α-bungarotoxin binding ex vivo, increased receptor number: 0.1 µg/kg
α7 receptor [4]
  GABA sIPSC frequency: 251 % baseline
